# In paper PMC7915026, “Sulfaguanidine Hybrid with Some New Pyridine-2-One Derivatives: Design, Synthesis, and Antimicrobial Activity against Multidrug-Resistant Bacteria as Dual DNA Gyrase and DHFR Inhibitors” (Antibiotics, 2021):
# Like-named read-outs stand apart in the source and are kept apart here.
# Experiments:
# B. subtilis ATCC 6633 [1] = experiment: Inhibition zone, paper disk/agar diffusion; further: test concentration or dose not given here; assay type: cell-based; details: B. subtilis; Na = no activity
# Outline: (§1)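 Activity was tested by the agar plate diffusion method. The read-out is the diameter (mm) of the inhibition zone around each tested derivative, with norfloxacin as the positive control.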
# C. albicans (ATCC 10231) [2] = experiment: Inhibition zone, paper disk/agar diffusion; assay type: cell-based; details: Na = no activity
# Outline: as §1
# E. faecalis ATCC 29212 [3] = experiment: Inhibition zone, paper disk/agar diffusion; further: test concentration or dose not given here; assay type: cell-based; details: E. faecalis; Na = no activity
# Outline: as §1
# [4] = test system: F. oxysporum (RCMB 008002); experiment: Inhibition zone, paper disk/agar diffusion; assay type: cell-based; details: Na = no activity; further: test concentration or dose not given here
# Outline: as §1
# P. aeruginosa ATCC 27853 [5] = experiment: Inhibition zone, paper disk/agar diffusion; assay type: cell-based; details: P. aeruginosa; Na = no activity
# Outline: as §1
# S. aureus ATCC 29213 [6] = experiment: Inhibition zone, paper disk/agar diffusion; further: test concentration or dose not given here; assay type: cell-based; details: S. aureus; Na = no activity
# Outline: as §1
# S. typhi ATCC 6539 = experiment: Inhibition zone, paper disk/agar diffusion; assay type: cell-based; details: S. typhi; Na = no activity
# Outline: as §1
# B. subtilis ATCC 6633 [7] = experiment: MIC and MBC determination; assay type: cell-based; details: Bacillus subtilis, ATCC6633, B. subtilis
# S. aureus ATCC 29213 [8] = experiment: MIC and MBC determination; assay type: cell-based; details: S. aureus
# E. faecalis ATCC 29212 [9] = experiment: MIC and MBC determination; assay type: cell-based; details: Enterococcus faecalis, ATCC29212, E. faecalis
# E. coli ATCC 25922 = experiment: MIC and MBC determination; assay type: cell-based; details: Escherichia coli, ATCC25922, E. coli
# P. aeruginosa ATCC 27853 [10] = experiment: MIC and MBC determination; assay type: cell-based; details: Pseudomonas aeruginosa, ATCC27853, P. aeruginosa
# [11] = test system: Salmonella typhi (S. typhi ATCC 6539); experiment: microbe, parasite or virus in culture; assay type: cell-based; details: Salmonella enterica, Salmonella typhi
# C. albicans (ATCC 10231) [12] = experiment: MIC and MFC determination; assay type: cell-based
# [13] = test system: F. oxysporum (RCMB 008002); experiment: MIC and MFC determination; assay type: cell-based
# E. coli ATCC BAA-196 [14] = experiment: Inhibition zone against multidrug-resistant bacteria; further: test concentration or dose not given here; assay type: cell-based; details: MDRB E. coli ATCC BAA-196
# Excerpt: (§2) Norfloxacin was used as a positive control for the multidrug resistance study.
# (§3) The antimicrobial activity performed at the bacteriology laboratory, Botany and Microbiology Department, Faculty of Science, Al-Azhar University, Cairo, Egypt. The inhibition zone (IZ) of the tested derivatives expressed as the diameter (mm) according to the agar plate diffusion method.
# [15] = test system: P. aeruginosa ATCC BAA-2111; experiment: as above; assay type: cell-based; details: MDRB P. aeruginosa ATCC BAA-2111
# Excerpt: as §2, §3
# S. aureus ATCC 33591 [16] = experiment: as above; assay type: cell-based; details: MDRB S. aureus ATCC 33591
# Excerpt: as §2, §3
# S. aureus ATCC 43300 [17] = experiment: as above; assay type: cell-based; details: MDRB S. aureus ATCC 43300
# Excerpt: as §2, §3
# E. coli ATCC BAA-196 [18] = experiment: MIC and MBC against multidrug-resistant strains; assay type: cell-based; details: Escherichia coli, ATCCBAA196, E. coli ATCC BAA-196
# Excerpt: as §2
# (§4) The experiment was repeating for three-times.
# [19] = test system: P. aeruginosa ATCC BAA-2111; experiment: MIC and MBC against multidrug-resistant strains; assay type: cell-based; details: Pseudomonas aeruginosa, ATCCBAA2111, P. aeruginosa ATCC BAA-2111
# Excerpt: as §2, §4
# S. aureus ATCC 33591 [20] = experiment: MIC and MBC against multidrug-resistant strains; assay type: cell-based; details: Staphylococcus aureus, ATCC33591, S. aureus ATCC 33591
# Excerpt: as §2, §4
# S. aureus ATCC 43300 [21] = experiment: MIC and MBC against multidrug-resistant strains; assay type: cell-based; details: Staphylococcus aureus, ATCC43300, S. aureus ATCC 43300
# Excerpt: as §2, §4
# S. aureus DNA gyrase = S. aureus DNA gyrase (Staphylococcus aureus, UniProt P0A0K8+P20831); experiment: In vitro DNA gyrase supercoiling enzymatic assay; assay type: biochemical
# Sequence of S. aureus DNA gyrase (P20831 whole entry): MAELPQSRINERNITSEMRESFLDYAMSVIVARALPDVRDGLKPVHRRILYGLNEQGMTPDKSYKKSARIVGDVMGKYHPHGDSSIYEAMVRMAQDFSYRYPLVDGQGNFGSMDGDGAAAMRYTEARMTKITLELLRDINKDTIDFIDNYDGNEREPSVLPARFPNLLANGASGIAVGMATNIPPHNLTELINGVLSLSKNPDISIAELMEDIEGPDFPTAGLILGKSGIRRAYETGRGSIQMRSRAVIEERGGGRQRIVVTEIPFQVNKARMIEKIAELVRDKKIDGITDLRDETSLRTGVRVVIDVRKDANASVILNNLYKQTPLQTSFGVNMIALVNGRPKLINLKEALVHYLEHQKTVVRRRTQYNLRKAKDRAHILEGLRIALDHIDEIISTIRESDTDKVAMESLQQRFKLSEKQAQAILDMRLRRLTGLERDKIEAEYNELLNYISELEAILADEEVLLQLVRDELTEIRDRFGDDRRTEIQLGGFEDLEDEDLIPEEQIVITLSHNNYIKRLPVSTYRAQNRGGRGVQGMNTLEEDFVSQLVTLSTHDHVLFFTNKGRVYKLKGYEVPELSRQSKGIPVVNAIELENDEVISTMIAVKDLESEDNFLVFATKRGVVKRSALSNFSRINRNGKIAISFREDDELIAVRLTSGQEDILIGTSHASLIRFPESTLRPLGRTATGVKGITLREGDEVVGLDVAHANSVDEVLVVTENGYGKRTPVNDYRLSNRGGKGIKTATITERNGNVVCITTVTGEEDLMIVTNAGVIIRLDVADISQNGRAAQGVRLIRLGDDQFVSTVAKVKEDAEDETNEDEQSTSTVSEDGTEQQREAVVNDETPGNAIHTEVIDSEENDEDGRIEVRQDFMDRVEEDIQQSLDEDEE
# Sequence of S. aureus DNA gyrase (P0A0K8 whole entry): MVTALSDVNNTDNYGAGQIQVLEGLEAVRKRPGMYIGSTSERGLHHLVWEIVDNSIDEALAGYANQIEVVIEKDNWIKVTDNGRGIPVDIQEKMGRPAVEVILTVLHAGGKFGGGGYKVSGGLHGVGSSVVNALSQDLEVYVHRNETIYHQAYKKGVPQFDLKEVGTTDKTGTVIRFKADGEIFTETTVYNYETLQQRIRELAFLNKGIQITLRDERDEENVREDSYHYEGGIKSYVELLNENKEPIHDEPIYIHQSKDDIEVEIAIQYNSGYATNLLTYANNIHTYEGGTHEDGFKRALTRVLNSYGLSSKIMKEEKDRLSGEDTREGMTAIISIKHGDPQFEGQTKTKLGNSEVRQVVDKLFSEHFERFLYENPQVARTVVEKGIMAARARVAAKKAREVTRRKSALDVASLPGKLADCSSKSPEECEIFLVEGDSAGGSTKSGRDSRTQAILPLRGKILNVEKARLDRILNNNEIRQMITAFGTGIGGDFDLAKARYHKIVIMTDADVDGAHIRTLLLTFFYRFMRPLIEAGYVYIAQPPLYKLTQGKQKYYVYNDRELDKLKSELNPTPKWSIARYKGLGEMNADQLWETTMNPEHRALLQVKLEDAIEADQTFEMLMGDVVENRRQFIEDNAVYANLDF
# [22] = target: E. coli DHFR (dihydrofolate reductase) (Escherichia coli, UniProt P0ABQ4); experiment: In vitro DHFR enzymatic assay; assay type: biochemical
# Sequence of E. coli DHFR (dihydrofolate reductase) (P0ABQ4 whole entry): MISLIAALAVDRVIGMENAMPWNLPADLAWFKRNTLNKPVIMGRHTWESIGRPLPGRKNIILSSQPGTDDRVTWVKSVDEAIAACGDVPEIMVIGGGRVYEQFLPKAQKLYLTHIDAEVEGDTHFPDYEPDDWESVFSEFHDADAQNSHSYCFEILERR
# neutrophils = experiment: In vitro intracellular killing, nitro blue tetrazolium (NBT) reduction assay; assay type: cell-based
# Protocol: One of the broad methods used for determining immune disorders for patients in hospitals is the NBT test to measure their immune responses. The reduction in NBT dye provides information about the phagocytic and intracellular killing functions of neutrophils, which are important for microbiocidal activity. The most promising derivatives (2a, 2b, 2d, 3a, 8, and 11) were evaluated against in vitro intracellular killing activities using a nitro blue tetrazolium (NBT) reduction assay and the obtained results expressed in percentage (%): increasing the percentage led to an improvement in the killing ability of the neutrophils used as innate immunity.
# (§5) In vitro intracellular killing activities for the most promising six derivatives 2a, 2b, 2d, 3a, 8, and 11 were performed according to reported methods.
# spleen and thymus = experiment: In vivo immunomodulation: immune organ weight and indexes; design: Spleen index: unit not given here; details: mice
# Excerpt: Both the spleen and thymus have important antibacterial and fungal immune organ responses, and any change in weight, and indexes can reflect the level of immune regulation. Additionally, the relative spleen and thymus indexes are important indices for nonspecific immunity and potential immunomodulatory compounds that increase the spleen and thymus weight. This increase is due to immune cells’ stimulation in the spleen and thymus. […]
# [23] = test system: CD4+ and CD8+ T lymphocytes; experiment: In vivo T lymphocyte subsets from peripheral blood, flow cytometry; details: mice
# Excerpt: Activation of immune cells as CD4^+ and CD8^+ T cells is one possible mechanism of a drug’s immune stimulus activity. An increase in these cells is thought to be a good indicator of an active immune response to infections. So, our work extended to study the effect of the most promising derivatives (2d, 8, and 11) on T lymphocyte subsets (CD4^+ and CD8^+) from peripheral blood, and determined the relative level in model mice that analyzed by flow cytometry after the period of treating.
# as §5
# Wherever Mean Diameter of Inhibition Zone is given: test concentration or dose not given here.
compound,measurement,setting,value
"Cc1cc(C)n(-c2ccc(S(=O)(=O)NC(=N)N)cc2)c(=O)c1C#N [Compound 8, N-Carbamimidoyl-4-(3-cyano-4,6-dimethyl-2-oxopyridin-1(2H)-yl) benzenesulfonamide]",Mean Diameter of the Inhibition Zone,B. subtilis ATCC 6633 [1],27 ± 0.50 mm
same,Mean Diameter of the Inhibition Zone,C. albicans (ATCC 10231) [2],24 ± 0.30 mm
same,Mean Diameter of the Inhibition Zone,E. faecalis ATCC 29212 [3],25 ± 0.33 mm
same,Mean Diameter of the Inhibition Zone,[4],20 ± 0.82 mm
same,Mean Diameter of the Inhibition Zone,P. aeruginosa ATCC 27853 [5],25 ± 0.85 mm
same,Mean Diameter of the Inhibition Zone,S. aureus ATCC 29213 [6],26 ± 0.14 mm
same,Mean Diameter of the Inhibition Zone,S. typhi ATCC 6539,23 ± 0.11 mm
same,MBC,B. subtilis ATCC 6633 [7]; read-out: MBC,30.6 ± 1.78 µM
same,MIC,B. subtilis ATCC 6633 [7]; read-out: MIC,16.1 ± 0.54 µM
same,MBC,S. aureus ATCC 29213 [8],10.71 ± 0.36 µM
same,MIC,S. aureus ATCC 29213 [8],5.64 ± 0.58 µM
same,MBC,"S. aureus ATCC 29213 [8]; Staphylococcus aureus, ATCC29213, read-out: MBC",10.7 µM
same,MIC,"S. aureus ATCC 29213 [8]; Staphylococcus aureus, ATCC29213, read-out: MIC",5.64 µM
same,MBC,E. faecalis ATCC 29212 [9]; read-out: MBC,19.19 ± 0.18 µM
same,MIC,E. faecalis ATCC 29212 [9]; read-out: MIC,11.3 ± 0.52 µM
same,MBC,E. coli ATCC 25922; read-out: MBC,36.2 ± 0.42 µM
same,MIC,E. coli ATCC 25922; read-out: MIC,22.6 ± 0.42 µM
same,MBC,P. aeruginosa ATCC 27853 [10]; read-out: MBC,172 ± 1.95 µM
same,MIC,P. aeruginosa ATCC 27853 [10]; read-out: MIC,90.5 ± 1.07 µM
same,MBC,[11]; read-out: MBC,19.19 ± 0.14 µM
same,MIC,[11]; read-out: MIC,11.3 ± 0.75 µM
same,MFC/MIC,C. albicans (ATCC 10231) [12],<2
same,MFC,"C. albicans (ATCC 10231) [12]; Candida albicans, ATCC10231, read-out: MFC",81.4 ± 0.84 µM
same,MIC,"C. albicans (ATCC 10231) [12]; Candida albicans, ATCC10231, read-out: MIC",45.2 ± 0.54 µM
same,MFC/MIC,[13],<2
same,MFC,"[13]; Fusarium oxysporum, RCMB008002, read-out: MFC",136 ± 1.98 µM
same,MIC,"[13]; Fusarium oxysporum, RCMB008002, read-out: MIC",90.48 ± 0.84 µM
same,Mean Diameter of Inhibition Zone,E. coli ATCC BAA-196 [14],20 ± 0.74 mm
same,Mean Diameter of Inhibition Zone,[15],21 ± 0.63 mm
same,Mean Diameter of Inhibition Zone,S. aureus ATCC 33591 [16],15 ± 0.33 mm
same,Mean Diameter of Inhibition Zone,S. aureus ATCC 43300 [17],22 ± 0.5 mm
same,MBC,E. coli ATCC BAA-196 [18]; read-out: MBC,53.56 ± 0.41 µM
same,MIC,E. coli ATCC BAA-196 [18]; read-out: MIC,26.8 ± 0.65 µM
same,MBC,[19]; read-out: MBC,45.2 ± 0.87 µM
same,MIC,[19]; read-out: MIC,22.6 ± 0.98 µM
same,MBC,S. aureus ATCC 33591 [20]; read-out: MBC,46.3 ± 0.58 µM
same,MIC,S. aureus ATCC 33591 [20]; read-out: MIC,25.7 ± 0.36 µM
same,MBC,S. aureus ATCC 43300 [21]; read-out: MBC,34.36 ± 0.24 µM
same,MIC,S. aureus ATCC 43300 [21]; read-out: MIC,18.1 ± 0.84 µM
same,IC50,S. aureus DNA gyrase,39.1 ± 1.72 µM
same,IC50,[22],12.3 ± 0.73 µM
same,Intracellular Killing Activity,neutrophils,136.5 ± 0.3%
same,Spleen index,spleen and thymus,0.010 ± 0.00
same,Spleen weight,spleen and thymus,200 ± 0.025 mg
same,Thymus index,spleen and thymus,0.537 ± 0.14 mg/g
same,Thymus weight,spleen and thymus,13.42 ± 0.46 mg
same,T cells CD4+,[23],78.70 ± 0.56%
same,T cells CD8+,[23],18.44 ± 0.2%
